Results published in patent publication US10028992B2, “Methods of treating muscular dystrophy” (BOARD OF REGENTS OF THE NEVADA SYSTEM OF HIGHER EDUCATION …, priority 2012, dated 2018).

System: α7 integrin promoter
Test: muscle cell-based assay: α7βgal+/− myoblasts/myotubes, LacZ reporter, β-galactosidase cleavage of FDG
Parameters: species or system mouse; Results in α7+/− β-galactosidase assay: scale not given here
Settings: Myoblasts
Outline: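 Primary α7βgal+/− mouse myoblasts (LacZ knocked into α7 integrin exon 1, promoter retained), differentiated; promoter activity read as β-galactosidase conversion of non-fluorescent FDG to fluorescein. Hits followed by dose-response, western analysis and myostatin counterscreen.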

Row | SMILES | Results in α7+/− β-galactosidase assay (0.5 uM) | Results in α7+/− β-galactosidase assay (1 uM) | Results in α7+/− β-galactosidase assay (5 uM) | Results in α7+/− β-galactosidase assay (10 uM) | Results in α7+/− β-galactosidase assay (20 uM) | Results in α7+/− β-galactosidase assay (40 uM)
1 | Cc1cc([N+](=O)[O-])ccc1NC(=O)C(C)N1CCN(c2ccccn2)CC1 (stereo not drawn) [drawing 601] | 0.08805 | 0.0582 | −0.01841 | −0.03065 | −0.0419 | −0.274
2 | CCc1nc(/C=C2\C(=O)Nc3ccccc32)c[nH]1 [drawing 602] | 0.2737 | 0.07781 | 0.08036 | 0.1565 | 0.1925 | −0.2038
3 | CCOC(=O)C1(Cc2cccc(Cl)c2)CCCN(C(=O)CCSC)C1 (stereo not drawn) [drawing 604] | 0.08932 | −0.00471 | −0.04484 | −0.02503 | −0.06029 | −0.2262
4 | Cc1cccc2c(/N=N/c3ccc(S(=O)(=O)Nc4ccc(Cl)cc4)cc3[N+](=O)[O-])c(O)[nH]c12 [drawing 605] | −0.02621 | −0.05717 | −0.2201 | −0.3043 | −0.4039 | −0.5304
5 | CC(C)c1ccc(OC(=O)c2cccc(S(=O)(=O)N3CCN(C)CC3)c2)cc1 [drawing 606] | −0.02855 | −0.1053 | 0.3741 | −0.02381 | 0.03734 | −0.08446
6 | CC(C)c1ccc(NC(=O)CN2C(=O)c3ccccc3S2(=O)=O)cc1 [drawing 607] | −0.1297 | −0.1704 | 0.367 | −0.05458 | −0.03658 | −0.09806
7 | NC(=O)c1sc2nc3c(cc2c1N)CCC3 [drawing 608] | 0.003482 | 0.04559 | 0.02429 | 0.07579 | 0.3169 | 0.4925
8 | O=C(Nc1ccccc1OC(=O)c1ccc(Cl)cc1)c1ccc(Cl)cc1 [drawing 609] | 0.03104 | 0.01493 | −0.04769 | −0.1879 | 0.6323 | −0.3765
9 | CC(NC(=O)c1ccc(C(C)(C)C)cc1)C(c1cccs1)N1CCOCC1 (stereo not drawn) [drawing 610] | 0.08931 | 0.1802 | 0.07478 | −0.02239 | −0.1131 | −0.1382
10 | CCC(=O)c1ccc(OCC(O)CN2CCOC(C)C2)cc1.O=C(O)C(=O)O (stereo not drawn) [drawing 611] | 0.222 | 0.08832 | −0.02345 | −0.1332 | 0.0354 | 0.02206
11 | CC1CCN(C(CNS(=O)(=O)c2ccccc2)c2ccccc2)CC1 (stereo not drawn) [drawing 612] | 0.05229 | −0.05932 | −0.02531 | −0.1141 | −0.291 | −0.3822
